Measured values as given in patent US20050014735A1, “Treatment of Th2 dominated immunological disease states with progesterone receptor antagonists” (Solvay Pharmaceuticals GmbH, priority 2001, published 2005).

Columns and labels:
[1] = tested on: peripheral blood mononuclear cells (PBMC); assay: Th1 and Th2 cytokine profiles produced by mitogen-stimulated PBMC (ELISA), ex vivo; format: cell-based, human
Experimental: The effects of dydrogesterone on Th1 and Th2 cytokine profiles produced by mitogen-stimulated peripheral blood mononuclear cells (=PBMC) were determined. Several studies have pointed to a deviation of cytokine profiles in women when during pregnancy. Pregnancy is associated with a shift towards Th2 bias, evinced by changes in peripheral T cells, by cytokine production by peripheral lymphocytes and by cytokine changes at the maternal-fetal interface. Unexplained recurrent spontaneous abortion (URSA) seems to be associated with a stronger bias towards Th1 cytokines. Women who have earlier been gone through URSA may therefore be regarded as a pre-selected group of patients that will typically respond to an immunological stimulation by showing a Th1 dominated pattern of immune response. The pharmacological test was therefore performed with a suitable URSA group which comprised of women admitted with spontaneous abortion for evacuation, (i) who have had at least two previous unexplained miscarriages, (ii) who were currently undergoing at least a 3rd abortion and (iii) who had been fully investigated. The relationship between habitual abortion and cytokine production response in 54 women with normal pregnancy (and at least 3 previous normal pregnancies) and 23 women with a history of habitual abortion of unexplained aetiology (URSA group) has been investigated. Peripheral blood was obtained by venipuncture from the abortion group on the day of abortion. PBMC is separated by Ficoll-paque (Pharmacia Biotech, Sweden) density gradient centrifugation, suspended in RPMI medium (=“Roswell Park Memorial Institute”-medium; obtained from GIBCO/BRL, USA) containing 10% fetal calf serum, aliquoted into 96 well tissue culture plates at a density of 100.000 cells per well and then stimulated with the mitogen phytohemagglutinin (=PHA, Sigma Chemicals, USA) at a concentration of […] for a period of 96 hours, with autologous placental antigens or with trophoblast antigens. […] Progesterone was tested at concentrations of […]. RU486 was tested at equivalent concentrations. Culture supernatants were harvested at 96 hours for determination of the levels of cytokines secreted by the PBMC into the supernatants. Cytokine levels were determined in the supernatants by enzyme-linked immunosorbent assay (=ELISA). Each sample was tested in the following manner: • PBMC+mitogen • PBMC+mitogen+progesterone • PBMC+mitogen+progesterone+RU486 • PBMC+mitogen+dydrogesterone • PBMC+mitogen+dydrogesterone+RU486 • PBMC+mitogen+Carrier • PBMC+mitogen+Carrier+RU486 Th1 cytokines TNF-α and IFN-γ, and Th2 cytokines IL-4, IL-6 and IL-10 were evaluated in these samples by ELISA using kits that were obtained from Immunotech SA, France. These consisted of “sandwich ELISA”; briefly the first step leads to the capture of the relevant cytokine by monoclonal anti-cytokine antibodies bound to the wells of microtiter plates. In the second step, a second biotinylated monoclonal is added together with streptavidin-enzyme (peroxidase or alkaline phosphatase) conjugate. The biotinylated antibody binds to the solid phase antibody-antigen complex, and in turn, binds the conjugate. After incubation the wells are washed and the binding of the streptavidin-enzyme via biotin is followed by the addition of a chromogenic substrate. The intensity of the coloration produced is proportional to the concentration of the cytokine in the sample. Standard curves are plotted for each of the cytokines using reference recombinant cytokines and the results are read from these curves. The sensitivity of each of the assays is as follows: 5 pg/ml of TNF-α, 0.08 IU/ml of IFN-γ, 5 pg/ml of IL-4 and 5 pg/ml of IL-10. Results will be analysed by the t-test for independent samples.

Th1 cytokine production = settings: in vitro, women with recurrent pregnancy loss; cited from earlier work
[2] = PBMC of women with spontaneous abortion and habitual abortion
[3] = PBMC supernatant, ELISA, 96 hours

SMILES	Th1/Th2 bias of cytokine profile [1, 2]	activity of lymphocytes [1, 2]	IFN-γ level [1, 3]	Interleukin 4 level [1, 3]	Interleukin 6 level [1, 3]	release of progesterone induced blocking factor (PIBF) ([1]; women with spontaneous abortion and habitual abortion)	embryotoxic Th1 cytokine production to trophoblast (Th1 cytokine production)
CC(=O)[C@H]1CC[C@H]2[C@@H]3C=CC4=CC(=O)CC[C@@]4(C)[C@@H]3CC[C@]12C [dydrogesterone]	shift from a Th1 towards a Th2 bias	reduced	reduction	marked increase	marked increase	increased release	
CC(=O)[C@H]1CC[C@H]2[C@@H]3CCC4=CC(=O)CC[C@]4(C)[C@H]3CC[C@]12C [progesterone]							inhibits
